Consider one molecule from ChEMBL document CHEMBL4831549, “The Marine Neurotoxin Brevetoxin (PbTx-2) Inhibits Karenia brevis and Mammalian Thioredoxin Reductases by Targeting Different Residues” (J Nat Prod, 2021).

The subject of assay [1] is Karenia brevis. In words: Inhibition of Karenia brevis TrxR assessed as reduction in substrate reduction at 40 uM using DTNB as a substrate incubated for 60 mins in the presence of NADPH followed by substrate addition measured for 5 mins by absorbance based assay relative to control.
Assay [2] deals with Karenia brevis. In words: Inhibition of Karenia brevis TrxR assessed as reduction in substrate reduction at 10 to 100 uM using H2O2 as a substrate incubated for 60 mins in the presence of NADPH followed by substrate addition measured for 15 mins by absorbance based assay relative to control. To be noted: dose 10-100 µM.
Assay [3] has as its system Karenia brevis. Nature of the assay: Inhibition of Karenia brevis TrxR assessed as reduction in substrate reduction at 40 uM using human Trx and insulin as a substrate incubated for 60 mins in the presence of NADPH followed by substrate addition measured for 5 mins by absorbance based assay relative to control.
Assay [4] has as its system Karenia brevis. Nature of the assay: Inhibition of Karenia brevis TrxR assessed as reduction in substrate reduction at 40 uM using GSSG as a substrate incubated for 60 mins in the presence of NADPH followed by substrate addition measured for 30 mins by absorbance based assay relative to control.
The subject of assay [5] is Karenia brevis. In words: Inhibition of Karenia brevis TrxRD3 assessed as reduction in substrate reduction at 40 uM using DTNB as a substrate incubated for 60 mins in the presence of NADPH followed by substrate addition measured for 5 mins by absorbance based assay relative to control.
Assay [6] in a line: Inhibition of Karenia brevis TrxR assessed as reduction in substrate reduction using H2O2 as a substrate incubated for 60 mins in the presence of NADPH followed by substrate addition measured for 15 mins by absorbance based assay.
For assay [7], the target named is T1, Thioredoxin reductase 1, cytoplasmic (Rattus norvegicus) (UniProt O89049).
T1 sequence (whole entry): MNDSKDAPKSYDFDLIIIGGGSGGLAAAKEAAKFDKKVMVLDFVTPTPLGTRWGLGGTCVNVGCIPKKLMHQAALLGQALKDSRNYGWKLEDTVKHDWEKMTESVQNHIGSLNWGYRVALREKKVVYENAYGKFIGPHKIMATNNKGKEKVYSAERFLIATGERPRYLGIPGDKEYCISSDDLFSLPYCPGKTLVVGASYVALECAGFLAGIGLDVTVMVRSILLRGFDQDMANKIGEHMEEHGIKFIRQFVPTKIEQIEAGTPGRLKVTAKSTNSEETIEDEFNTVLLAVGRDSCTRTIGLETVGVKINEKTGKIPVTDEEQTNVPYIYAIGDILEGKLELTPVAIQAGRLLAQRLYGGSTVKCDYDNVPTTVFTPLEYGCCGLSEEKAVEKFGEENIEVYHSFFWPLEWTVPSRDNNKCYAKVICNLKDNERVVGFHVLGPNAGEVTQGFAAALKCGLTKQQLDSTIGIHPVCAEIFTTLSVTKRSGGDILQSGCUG
In words: Binding affinity to rat TrxR1 assessed as adduct formation at 7.2 uM by LC-MS/MS analysis.

Assay [8] relates to Karenia brevis. Nature of the assay: Binding affinity Karenia brevis TrxR assessed as formation at 7.2 uM by LC-MS/MS analysis.

Calls of active or inactive are those of the source. The rule behind the calls is not given here.

Broadly, the inhibition is the share of the control response that was lost under treatment. A word on the IC50: it is the concentration that gives 50% inhibition. For `C=C(C=O)C[C@@H]1C[C@H](O)[C@]2(C)O[C@@H]3C[C@@H]4O[C@@H]5C[C@]6(C)O[C@]7(C)CC[C@@H]8O[C@@H]9C[C@]%10(C)O[C@@H]%11C(C)=CC(=O)O[C@H]%11C[C@H]%10O[C@H]9C[C@@H](C)[C@H]8O[C@H]7C[C@H]6O[C@@]5(C)C/C=C\[C@H]4O[C@H]3C[C@H]2O1` [BREVETOXIN B], the inhibition in the assay on Karenia brevis [1] amounted to 44.7%; in the assay on Karenia brevis [2], 39.6%; with Karenia brevis [3], 34%; with Karenia brevis [4] it was 32.5%; with Karenia brevis [5] it was 20.7%. Besides, in assay [6], the concentration for half-maximal inhibition (IC50) is 56 µM. Besides, the outcome (in assay [7]; in the assay on Karenia brevis [8]) was Active.
